Columns and labels:
[1] = Fragrance compatibility study (colour formation with fragrances, Macbeth Color Spectrophotometer and visual); assay type: physicochemical; details: for ΔRG @ 45° C., Average / ΔYB @ 45° C., Average: average of 14 fragrances; for ΔRG @ 45° C., Average / ΔYB @ 45° C., Average / ΔRG @ 45° C. / ΔYB @ 45° C.: four weeks at 45° C.; for ΔRG @ 45° C. / ΔYB @ 45° C.: 0.75% perfume, 20% active
Description: It is known that fragrances in antiperspirants can discolor over time due to the acidic nature and high transition metals concentration especially Fe, Cr, Co, Mn, Cu, and Ni. It is also known that glycine can initiate Schiff base reaction with aldehydes present in fragrances. […] Fragrance dispersions were prepared as follows: 0.75% perfume, 1.0% Arlasolve 200, 20% antiperspirant active (on an anhydrous basis), q.s. DI water. Samples were stored at 45° C. for four weeks and were analyzed for color visually as well as using Macbeth Color Spectrophotometer. Aluminum zirconium tetrachlorohydrex was compared against aluminum zirconium penta and octa salts of Examples 1 and 2. Color was measured as ΔYB (yellow blue) and ΔRG (red green) for all the fourteen fragrances and three actives.

[2] = test system: human volunteers; test: Controlled Hot Room Gravimetric Test of antiperspirant efficacy, suspension roll-on; assay type: in vivo; details: for Sweat reduction: anhydrous suspension roll-on, about 20% salt on anhydrous basis, hot room
Description: Aluminum zirconium octa salt of example 1 was tested for antiperspirant efficacy against most widely used aluminum zirconium tetrachlorohydrex in a suspension roll-on formulation using the standard hot room procedure. In the standard hot room procedure, human volunteers are subjected to thermal stress and gravimetric determination of the perspiration produced under the thermal stress with and without antiperspirant product applications are made. The data is subjected to analysis of covariance method described by Murphy and Levine (T. D. Murphy, et al., Analysis of Antiperspirant Efficacy Test Results, Journal of the Society of Cosmetic Chemists, Vol. 42, May 1991, pp. 167–197) and compared for percent sweat reduction capacity. Antiperspirancy tests were conducted by an outside independent lab employing “Controlled Hot Room Gravimetric Test” in conformance with FDA guidelines.
The anhydrous suspension roll-ons were prepared using an aluminum zirconium salt concentration of about 20% on an anhydrous basis (about 25% on weight basis) and approximate concentration of other ingredients were Dow Coming 245, 70.5%, Bentone 38, 2.70%, SDA Alcohol 40 (95% alcohol+5% water) 1.8%.
Aluminum zirconium tetrachlorohydrex powder used for comparison had the following chemical analysis. % Al 14.8, % Zr 14.5, % Cl 18.36, % Glycine 11.7, Al/Zr atomic ratio 3.52 and M/Cl atomic ratio of 1.36, % A.S. 77.46.
Sweat reduction values for the octa and tetra salts were 48% and 52% respectively. Results of this study established that amino acid free cost effective aluminum zirconium salts could be prepared without sacrificing efficacy.

| Substance | ΔRG @ 45° C., Average [1] | ΔYB @ 45° C., Average [1] | ΔRG @ 45° C. ([1]; fragrance AC 10278/498988) | ΔYB @ 45° C. ([1]; fragrance AC 10278/498988) | ΔRG @ 45° C. ([1]; fragrance Bell J-8381) | ΔYB @ 45° C. ([1]; fragrance Bell J-8381) | ΔRG @ 45° C. ([1]; fragrance Drom99-920) | ΔYB @ 45° C. ([1]; fragrance Drom99-920) | ΔRG @ 45° C. ([1]; fragrance FFS 52847) | ΔYB @ 45° C. ([1]; fragrance FFS 52847) | ΔRG @ 45° C. ([1]; fragrance Firm. 430–507) | ΔYB @ 45° C. ([1]; fragrance Firm. 430–507) | ΔRG @ 45° C. ([1]; fragrance Noville AN 119738) | ΔYB @ 45° C. ([1]; fragrance Noville AN 119738) | ΔRG @ 45° C. ([1]; fragrance Q-26238) | ΔYB @ 45° C. ([1]; fragrance Q-26238) | ΔRG @ 45° C. ([1]; fragrance Q-26239) | ΔYB @ 45° C. ([1]; fragrance Q-26239) | ΔRG @ 45° C. ([1]; fragrance Q-26240) | ΔYB @ 45° C. ([1]; fragrance Q-26240) | other results |
| --- | --- | --- | --- | --- | --- | --- | --- | --- | --- | --- | --- | --- | --- | --- | --- | --- | --- | --- | --- | --- | --- |
| aluminum zirconium octachloro-hydrate [Example 1] | 6.84 | 8.2 | 1.86 | 3.77 | 2.88 | 5.56 | 2.28 | 4.45 | 6.37 | 6.76 | 12.82 | 14.63 | 11.91 | 12.23 | 7.45 | 8.49 | 6.65 | 9.40 | 4.07 | 5.04 | discoloration compared with tetrasalt ([1]; 14 fragrances, four weeks of shelf aging at 45° C., visual and instrumental): less discoloration; ΔRG @ 45° C. ([1]; fragrance Q-26241): 3.76; ΔYB @ 45° C. ([1]; fragrance Q-26241): 7.13; ΔRG @ 45° C. ([1]; fragrance Q-26242): 6.54; ΔYB @ 45° C. ([1]; fragrance Q-26242): 9.77; ΔRG @ 45° C. ([1]; fragrance Quest Q-14072): 10.05; ΔYB @ 45° C. ([1]; fragrance Quest Q-14072): 9.61; ΔRG @ 45° C. ([1]; fragrance SM 25105D): 8.65; ΔYB @ 45° C. ([1]; fragrance SM 25105D): 8.57; ΔRG @ 45° C. ([1]; fragrance Takasago RM 1595): 10.51; ΔYB @ 45° C. ([1]; fragrance Takasago RM 1595): 10.02; adverse experiences ([2]; 37 female subjects, suspension roll-on): No adverse experiences; difference in the reduction in perspiration versus aluminum zirconium tetrachlorohydrex ([2]; 37 female subjects, p=0.127): no statistically significant difference; Sweat reduction ([2]; 37 female subjects): 48% |
| aluminum zirconium tetrachlorohydrex [reference compound] | 9.48 | 11.94 | 4.67 | 7.12 | 4.69 | 7.45 | 5.55 | 9.69 | 6.48 | 8.63 | 18.73 | 20.27 | 16.50 | 16.28 | 8.67 | 11.51 | 8.24 | 12.12 | 8.68 | 10.51 | ΔRG @ 45° C. ([1]; fragrance Q-26241): 7.98; ΔYB @ 45° C. ([1]; fragrance Q-26241): 11.29; ΔRG @ 45° C. ([1]; fragrance Q-26242): 9.21; ΔYB @ 45° C. ([1]; fragrance Q-26242): 14.50; ΔRG @ 45° C. ([1]; fragrance Quest Q-14072): 14.66; ΔYB @ 45° C. ([1]; fragrance Quest Q-14072): 16.59; ΔRG @ 45° C. ([1]; fragrance SM 25105D): 9.49; ΔYB @ 45° C. ([1]; fragrance SM 25105D): 11.76; ΔRG @ 45° C. ([1]; fragrance Takasago RM 1595): 9.14; ΔYB @ 45° C. ([1]; fragrance Takasago RM 1595): 9.49; Sweat reduction ([2]; 37 female subjects): 52%; adverse experiences ([2]; in vivo): No adverse experiences |
